Key:
E. coli UT5600 = experiment: Minimal Inhibitory Concentration (MIC) of Na3As04, wild type E. coli UT5600; type: cell-based, Escherichia coli; conditions: Na3As04 0-50 mM, 28° C., 48 h, OD600
Description: (§1) Panel C illustrates the comparison between the growth levels of E. coli wild type and recombinant cells in the presence of different concentrations of Na3As04 ranging from 0-50 mM. After incubation at 28° C. for 48 h, the bacterial growth was measured by reading the absorbance at 600 nm (OD600) in a spectrophotometer.
(§2) To find out whether the recombinant E. coli UT5600/pCM-As lineage had increased resistance to arsenate ions, as compared to the UT5600 lineage from which it is derived, the MIC against Na3As04 of each of the lineages was determined.
(§3) The final bacterial growth in different Na3As04 concentrations was quantified by Absorbance reading at 600 ηm (FIG. 10C). The assays were performed in triplicate, showing similar results.

C. metallidurans CH34 = experiment: Minimal Inhibitory Concentration (MIC) of Na3As04, wild type C. metallidurans CH34; type: cell-based, Cupriavidus metallidurans; conditions: Na3As04 0-1,000 mM, 28° C., 48 h, OD600
Description: After incubation at 28° C. for 48 h, the bacterial growth was measured by reading the absorbance at 600 nm (OD600) in a spectrophotometer.
The MIC of C. metallidurans CH34 and C. metallidurans CH34/pCM-As cells against As5+ ions were also studied. […] The MIC of Na3As04 for C. metallidurans CH34/pCM-As was above 1,000 mM, indicating an increase in survivability to As5+ ions above 100% (FIG. 11B). The bacterial growth for the MIC assays was quantified by Absorbance reading at 600 nm (FIG. 11C). The assays were performed in triplicate, showing similar results.

E. coli UT5600/pCM-As = experiment: Minimal Inhibitory Concentration (MIC) of Na3As04, recombinant E. coli UT5600/pCM-As; type: cell-based, Escherichia coli; conditions: Na3As04 0-50 mM, 28° C., 48 h, OD600
Description: as §1, §2, §3

For sodium arsenate [Na3As04], the “Minimum Inhibitory Concentration (MIC)” value (E. coli UT5600) was 25 mM, the “Minimum Inhibitory Concentration (MIC)” value (C. metallidurans CH34) was 500 mM and the “Minimum Inhibitory Concentration (MIC)” value (E. coli UT5600/pCM-As) was 50 mM.
